Assay results: PMC10819729 (Pharmaceutics, 2023)
Counter-ions that a name gives are not always drawn. Like-named read-outs stand apart in the source and are kept apart here.

Key:
[1] = cited from earlier work
[2] = human, in vivo, cited from earlier work
[3] = human; cited from earlier work
[4] = in vivo; design: species or system mice; conditions: male, C57BL/6J, mouse, 30 mg/kg; for half-life: T1/2 (plasma)
Protocol: Adult male C57BL/6J mice (8–9 weeks, 23–27 g) were purchased from the Jackson Laboratory, Bar Harbor, ME, USA. Mice were housed in ventilated cages with controlled temperature and humidity, and a 12 h light/dark cycle. Food and water were available ad libitum, and animals were habituated to the experimental room for three days before the start of the study. All procedures were conducted according to a protocol approved by the Texas Tech University Health Sciences Center Institutional Animal Care and Use Committee (protocol 21039, approved on 26 July 2023). […] Plasma and brain samples were collected 5, 20, 60, 120, and 180 min after the drug administration. […] Mice were deeply anesthetized with isoflurane and decapitated, followed by blood collection in a microtube containing heparin. Plasma was obtained by centrifugation of the microtube for 10 min at 5000× g at 4 °C. The brains were quickly removed and delicately cleansed on filter paper with sterile saline, the surface vasculature was removed using gauze tipped in saline, and the forebrains were quickly frozen using dry ice. Plasma and brain samples were stored at −80 °C until bioanalysis. The brain samples were homogenized at 1:10 (w/v) in LC-MS-grade water using BioSpec Tissue-Tearor Homogenizer. The plasma sample was diluted 10-fold (v/v) in LC-MS-grade water. The plasma samples and brain homogenates were subjected to protein precipitation using ice-cold acetonitrile (1:4 ratio) containing 0.1% formic acid along with the IS (10 ng/mL). The samples underwent continuous vortexing for 5 min, followed by centrifugation at 12,800× g at 4 °C. The resulting clear supernatant was used for injection into the mass spectrometer. LC-MS/MS analysis was conducted using a QTRAP 5500 mass spectrometer (SCIEX, Foster City, CA, USA) connected with a SHIMADZU Prominence LC system (Kyoto, Japan), consisting of an LC-30AD solvent delivery unit, a DGU-20A3R degassing unit, a CTO-30A column oven, and a SIL-30AC autosampler. Chromatographic separation was achieved on an EVO-C18 100Å column (1.7 µm i.d., 50 × 2.1 mm). The mobile phase comprised 0.1% formic acid in water (A) and 0.1% formic acid in acetonitrile (B) at a flow rate of 0.3 mL/min. […] The autosampler and column temperatures were 4 °C and 40 °C, respectively. The injection volume was 2 μL. The mass spectrometric detection of the analytes was executed using multiple reaction monitoring (MRM) with an electrospray ionization (ESI) source in positive ion mode. The conditions were curtain gas, 35 psi; ion spray voltage, 5500 V; temperature, 500 °C; ion source gas 1, 50 psi; and ion source gas 2, 55 psi. […] For milnacipran-d10, which served as the IS, the MH^+ was monitored at m/z 257.2, whereas a fragment at m/z 110.2 was monitored as the product ion. […] Data acquisition and processing were carried out using Sciex Analyst (version 1.7) and MultiQuant software (version 3.0), respectively. The pharmacokinetic parameters were assessed using standard non-compartmental analysis. Microsoft Excel and GraphPad Prism 8.4.3 software were used for calculations and graphical presentation. The apparent first-order terminal rate constant (Kel) with 95% confidence interval (95% CI) was obtained in Prism by linear regression of log-transformed plasma concentration versus time data. The linear trapezoidal model was used for both IV and IP administration to determine area under the curve from time 0 to 3 h (AUC0-3). AUC0-∞ (area under the curve from time 0 to infinity) was obtained by extrapolation to infinity, using the mean concentration at the terminal time point and Kel. The standard errors (SE) of AUC0-3 and AUC0-∞ were calculated applying Bailer’s method for sparse data. Cmax and Tmax values after IP administration are based on actual measurements for the noted sampling time-points. The terminal T1/2 with CI was calculated as 0.693/Kel. […] For the IV route, Vd was calculated using the formula Dose/C0, and clearance (Cl) was determined as Vd*Kel. […]

SMILES: CCN(CC)C(=O)C1(c2ccccc2)CC1CN (racemic) [milnacipran, (±)-[1R(S), 2S(R)]-2-(aminomethyl)-N, N-diethyl-1-phenylcyclopropanecarboxamide hydrochloride]
- half-life ([1]; rat, in vivo, iv, 4.5 mg/kg): 402 min
- half-life ([1]; rats, intranasal, 20 mg/kg): 67.9 min
- bioavailability ([2]; po): ~ 90%
- time to peak plasma concentrations ([2]; po): 2 to 4 h
- terminal elimination half-life [2]: 360 to 600 min
- volume of distribution [2]: 5.3 L/kg
- Plasma protein binding [3]: around 13%
- bioavailability [4]: 92.5%
- AUC(0-inf) ([4]; ip): 11000 ng·h/mL
- AUC(0-t) ([4]; ip): 10300 ng·h/mL
- Cmax ([4]; ip): 8530 ± 690 ng/mL
- Kterm (plasma) ([4]; ip): 0.016 (0.013 to 0.019) min^−1
- MRT ([4]; ip): 58.3 min
- Tmax ([4]; ip): 5 min
- Vd ([4]; ip): 3.37 L/kg
- clearance ([4]; ip): 39.5 mL/min/kg
- half-life ([4]; ip): 42.5 min
- Tmax ([4]; ip, Tmax (brain)): ~60 min
- AUC(0-inf) ([4]; iv): 11800 ng·h/mL
- AUC(0-t) ([4]; iv): 10400 ng·h/mL
- Kterm (plasma) ([4]; iv): 0.012 (0.011 to 0.013) min^−1
- MRT ([4]; iv): 57 min
- T1/2 (plasma) ([4]; iv): 59.2 (54.4 to 64.1) min
- Vd ([4]; iv): 3.65 L/kg
- clearance ([4]; iv): 42.7 mL/min/kg
- half-life ([4]; iv): 59 min
- Tmax ([4]; iv, Tmax (brain)): ~60 min
